≈ marks a conversion by molar mass, not a printed value. Where “and” joins values, the source holds several entries; their conditions need not be identical. Equal values may be shown once. Read-outs that look alike come from different tables or passages of the source. Marks after values point to notes of the source that are not given here.
Legend:
M. avium = M. avium in vitro activity summary (MIC90, MBC); assay type: cell-based
[1] = system: luciferase expressing P. berghei liver stage parasites; test: Liver stage activity by in vivo imaging; conditions: mice, PO dosing at 40 mg/kg/d×3 days
Procedure: Efficacy was measured by number of mice with delayed parasitemia and mice that were malaria free at day 31. Antimalarial liver stage activity was assessed in mice infected with luciferase expressing P. berghei parasites using an in vivo imaging system.

[2] = system: P. falciparum lines Dd2 and 7G8 and azithromycin-resistant lines; test: Fidock lab 96 hours assay on P. falciparum lines; assay type: cell-based
From the text: EXAMPLE. CEM101 is active when tested against Azi resistant strain (Fidock).

P. falciparum NF54 [3] = test: In vitro P. falciparum 120 hour assay (96+24); assay type: cell-based; conditions: Plasmodium falciparum, NF54
Procedure: EXAMPLE. In vitro and in vivo activity against different species of Plasmodium parasites. CEM-101 was tested against intra-erythrocytic forms of P. falciparum derived from asynchronous cultures of the strain […]. Parasite growth over 120 h was measured by the incorporation of radiolabelled [^3H]hypoxanthine (in hypoxanthine free culture medium) added after 96 h of drug incubation and 24 h prior to the termination of the test. CEM-101 was followed for 120 h. CEM-101 has delayed activity when compared to other agents.
In vitro P. falciparum data for CEM-101 in the 120 h Assay (96+24)

M. avium complex = test: Broth dilution MIC versus M. avium complex isolates; assay type: cell-based, Mycobacterium avium; conditions: Mycobacterium avium, read-out: MIC
P. falciparum NF54 [4] = test: In vitro P. falciparum 72 hour assay (48+24); assay type: cell-based; conditions: Plasmodium falciparum, NF54
Procedure: EXAMPLE. In vitro and in vivo activity against different species of Plasmodium parasites. CEM-101 was tested against intra-erythrocytic forms of P. falciparum derived from asynchronous cultures of the strain […]. […] CEM-101 was followed for 120 h. CEM-101 has delayed activity when compared to other agents.
In vitro P. falciparum data for CEM-101 in the 72 h Assay (48+24)

[5] = system: non-replicating M. tuberculosis; test: Low Oxygen Recovery Assay (LORA), non-replicating culture; assay type: cell-based; conditions: non-replicating culture (anaerobic); two experiments
[6] = system: MTb growing inside macrophages; test: MTb inside infected macrophages, ATP readout; assay type: cell-based, M. tuberculosis; conditions: 1 μg/mL
[7] = system: replicating M. tuberculosis; test: Aero RLU (Relative Light Units under aerobic conditions), replicating culture; assay type: cell-based; conditions: two experiments
[8] = system: replicating M. tuberculosis; test: Microplate Alamar Blue Assay (MABA), replicating culture; assay type: cell-based; conditions: two experiments
P. berghei blood stages = test: Blood stage treatment of P. berghei-infected mice, 3 day PO or SC dosing; assay type: in vivo; conditions: blood stage infections
P. berghei = test: Murine P. berghei model, oral 1x or 4x 100 mg/kg; assay type: in vivo; conditions: for Parasitized RBC in one drop of blood (made by microscope): individual animals
Procedure: EXAMPLE. CEM-101 activity in infected mice.
EXAMPLE. CEM-101 was tested in the murine P. berghei model as described by Vennerstrom et al. Nature 430(7002):900-904 (2004), the disclosure of which is incorporated herein by reference.

M. avium LPR ATCC 49601 = test: Murine model of M. avium infection, CFU in spleens and lungs; assay type: in vivo; conditions: mice; for reduction in growth of MAC LPR in the spleens and lungs compared to the late controls: P<0.05
[9] = assay type: in vitro ADME; conditions: 24 h
Procedure: EXAMPLE. Intracellular activity of CEM-101. […] After 24 hours, the intracellular concentration of CEM-101 was more than 2-fold higher than any of azithromycin, clarithromycin, and telithromycin, in decreasing order of ability for intracellular accumulation. CEM-101 intracellular accumulation was dose dependent.

CC[C@H]1OC(=O)[C@@](C)(F)C(=O)[C@H](C)[C@@H](O[C@@H]2O[C@H](C)C[C@H](N(C)C)[C@H]2O)[C@](C)(OC)C[C@@H](C)C(=O)[C@H](C)[C@H]2N(CCCCn3cc(-c4cccc(N)c4)nn3)C(=O)O[C@]12C [CEM-101, solithromycin]
MBC (M. avium; Mycobacterium avium, all strains tested, read-out: MBC): 2 µg/mL (≈ 2.37 µM)
MIC (M. avium; Mycobacterium avium, susceptible phenotype, N=24, read-out: MIC): 1 µg/mL (≈ 1.18 µM)
MBC (range) (M. avium; N=30): 2 (2) μg/mL
MIC90 (range) (M. avium; N=30): 1 (1) μg/mL
MBC (M. avium; resistant phenotype, MBCs calculated for 4 of the resistant strains): 2^a μg/mL
MIC (M. avium; resistant phenotype, N=6): 1 µg/mL (≈ 1.18 µM)
MBC (M. avium; susceptible phenotype, N=24): 2 µg/mL (≈ 2.37 µM)
antimalarial activity against liver stage parasites by in vivo imaging [1]: No demonstrable antimalarial activity
IC50 ([2]; Plasmodium falciparum, 96 h, line 7G8 (multidrug resistant), 96 hours, read-out: Mean IC50): 18.5 nM
IC50 ([2]; Plasmodium falciparum, 96 h, line AZR 7G8-R1, 96 hours, read-out: Mean IC50): 80.2 nM
IC50 ([2]; Plasmodium falciparum, 96 h, line AZR Dd2-R2, 96 hours, runs 1-3, read-out: IC50): 73.2 nM
IC50 ([2]; Plasmodium falciparum, 96 h, line AZR Dd2-R2, 96 hours, read-out: Mean IC50): 69.1 nM
IC50 ([2]; Plasmodium falciparum, 96 h, line Dd2 (multidrug resistant), 96 hours, read-out: Mean IC50): 38.6 nM
IC50 ([2]; line AZR Dd2-R2, 96 hours, runs 1-3, read-out: IC50): 64.5 nM and 69.7 nM
IC50 (P. falciparum NF54 [3]; 120 h assay (96+24), read-out: IC50 NF54): 0.0024 µg/mL (≈ 0.00284 µM)
IC50 (P. falciparum NF54 [3]; 120 hour assay (96+24), read-out: IC50 NF54 Test 1): < 0.156 µg/mL
IC50 (P. falciparum NF54 [3]; 120 hour assay (96+24), read-out: IC50 NF54 Test 2): < 0.015 µg/mL
IC50 (P. falciparum NF54 [3]; 120 hour assay (96+24), read-out: IC50 NF54 Test 3): 0.0024 µg/mL (≈ 0.00284 µM)
MIC (M. avium complex; isolate MAC 101, clarithromycin susceptible): 0.25 µg/mL (≈ 0.296 µM)
MIC (M. avium complex; isolate MAC 103, clarithromycin resistant): 8 µg/mL (≈ 9.47 µM)
MIC (M. avium complex; isolate MAC 108, clarithromycin resistant): 8 µg/mL (≈ 9.47 µM)
MIC (M. avium complex; isolate MAC 110, clarithromycin resistant): 8 µg/mL (≈ 9.47 µM)
MIC (M. avium complex; isolate MAC 216, clarithromycin resistant): 8 µg/mL (≈ 9.47 µM)
MIC (M. avium complex; isolate MAC 224, clarithromycin resistant): 8 µg/mL (≈ 9.47 µM)
MIC (M. avium complex; isolate MAC 309, clarithromycin resistant): 8 µg/mL (≈ 9.47 µM)
MIC (M. avium complex; isolate MAC 320, clarithromycin resistant): 8 µg/mL (≈ 9.47 µM)
MIC (M. avium complex; isolate MAC 621, clarithromycin resistant): 16 µg/mL (≈ 18.9 µM)
MIC (M. avium complex; isolate MAC 623, clarithromycin resistant): 16 µg/mL (≈ 18.9 µM)
MIC (M. avium complex; isolate MAC 625, clarithromycin resistant): 8 µg/mL (≈ 9.47 µM)
MIC (M. avium complex; isolate MAC 643, clarithromycin resistant): 8 µg/mL (≈ 9.47 µM)
MIC (M. avium complex; isolate MAC 1408, clarithromycin susceptible): 0.25 µg/mL (≈ 0.296 µM)
MIC (M. avium complex; isolate MAC 3404.4, clarithromycin susceptible): 0.125 µg/mL (≈ 0.148 µM)
MIC (M. avium complex; isolate MAC 9141, clarithromycin susceptible): 1 µg/mL (≈ 1.18 µM)
MIC (M. avium complex; isolate MAC FAR, clarithromycin susceptible): 0.125 µg/mL (≈ 0.148 µM)
MIC (M. avium complex; isolate MAC GRL, clarithromycin susceptible): 8 µg/mL (≈ 9.47 µM)
MIC (M. avium complex; isolate MAC KAL, clarithromycin susceptible): 16 µg/mL (≈ 18.9 µM)
MIC (M. avium complex; isolate MAC KZL, clarithromycin susceptible): 8 µg/mL (≈ 9.47 µM)
MIC (M. avium complex; isolate MAC LPR (control strain)): 8 µg/mL (≈ 9.47 µM)
MIC (M. avium complex; isolate MAC Pry, clarithromycin resistant): 8 µg/mL (≈ 9.47 µM)
MIC (M. avium complex; isolate MAC SMT, clarithromycin susceptible): 0.125 µg/mL (≈ 0.148 µM)
MIC (M. avium complex; isolate MAC TEL, clarithromycin susceptible): 8 µg/mL (≈ 9.47 µM)
MIC (M. avium complex; isolate MAC TRY, clarithromycin susceptible): 8 µg/mL (≈ 9.47 µM)
IC50 (P. falciparum NF54 [4]; 72 h assay (48+24), read-out: IC50 NF54 TEST 1): 0.919 µg/mL (≈ 1.09 µM)
IC50 (P. falciparum NF54 [4]; 72 h assay (48+24), read-out: IC50 NF54 TEST 2): 1.54 µg/mL (≈ 1.82 µM)
IC50 (P. falciparum NF54 [4]; 72 h assay (48+24), read-out: IC50 NF54 TEST 3): 1.49 µg/mL (≈ 1.76 µM)
IC50 (P. falciparum NF54 [4]; 72 h assay (48+24), read-out: IC50 NF54 TEST 4): 1.26 µg/mL (≈ 1.49 µM)
IC50 (P. falciparum NF54 [4]; 72 hour assay (48+24), read-out: IC50 NF54 Test 1): 0.919 µg/mL (≈ 1.09 µM)
IC50 (P. falciparum NF54 [4]; 72 hour assay (48+24), read-out: IC50 NF54 Test 2): 1.54 µg/mL (≈ 1.82 µM)
IC50 (P. falciparum NF54 [4]; 72 hour assay (48+24), read-out: IC50 NF54 Test 3): 1.49 µg/mL (≈ 1.76 µM)
IC50 (P. falciparum NF54 [4]; 72 hour assay (48+24), read-out: IC50 NF54 Test 4): 1.26 µg/mL (≈ 1.49 µM)
LORA [5]: 10.43 µM and 7.55 µM
decrease in ATP of MTb released from infected treated cells [6]: 10 fold
Aero RLU [7]: 7.19 µM and 6.95 µM
MIC ([8]; Mycobacterium tuberculosis): 9.23 µM (≈ 7.8 µg/mL)
MIC [8]: 9.17 µM (≈ 7.75 µg/mL)
minimum active dose for PO route (P. berghei blood stages; PO): 80 mg/kg/d×3
minimum curative SC dose (P. berghei blood stages; SC): 40 mg/kg/d×3 days
outcome in murine malarial infection model (P. berghei; mice): curative
Activity (%) (P. berghei; mice, 1 × 100 mg/kg oral, DMSO): 80.05%
Survival (P. berghei; mice, 1 × 100 mg/kg oral, DMSO): 15.7 days
Activity (%) (P. berghei; mice, 1 × 100 mg/kg oral, HPMC): 81.45%
Survival (P. berghei; mice, 1 × 100 mg/kg oral, HPMC): 12.7 days
Activity (%) (P. berghei; mice, 4 × 100 mg/kg oral, DMSO): 99.79%
Cure (%) (P. berghei; mice, 4 × 100 mg/kg oral, DMSO): 100%
Survival (P. berghei; mice, 4 × 100 mg/kg oral, DMSO, survivors sacrificed on Day 31): 30.0 days
Activity (%) (P. berghei; mice, 4 × 100 mg/kg oral, HPMC): 99.79%
Cure (%) (P. berghei; mice, 4 × 100 mg/kg oral, HPMC): 100%
Survival (P. berghei; mice, 4 × 100 mg/kg oral, HPMC, survivors sacrificed on Day 31): 30.0 days
blood from treated animals parasite free or not (P. berghei; mice, 4× 100 mg/kg p.o.): parasite free
Visual Observation (parasites in blood) (P. berghei; mice, 4× 100 mg/kg p.o., DMSO): neg
Parasitized RBC in one drop of blood (made by microscope) (P. berghei; mice, 4× 100 mg/kg p.o., DMSO): 0
Visual Observation (parasites in blood) (P. berghei; mice, 4× 100 mg/kg p.o., HPMC): neg
Parasitized RBC in one drop of blood (made by microscope) (P. berghei; mice, 4× 100 mg/kg p.o., HPMC): 0
outcome of treatment (P. berghei; mice, P. berghei strain ANKA, 4×100 mg/kg, cure = survival on Day 30 with no detectable parasites): cure
activity compared with Artesunate in the mouse model (P. berghei; murine P. berghei model (Vennerstrom et al.)): equivalent activity to Artesunate
reduction in growth of MAC LPR in the spleens and lungs compared to the late controls, significant or not (M. avium LPR ATCC 49601; 25 mg/kg orally 5 days/week for 4 weeks, P>0.05): not
reduction in growth of MAC LPR in the spleens and lungs compared to the late controls (M. avium LPR ATCC 49601; 50 mg/kg orally 5 days/week for 4 weeks): significant
reduction in growth of MAC LPR in the spleens and lungs compared to the late controls (M. avium LPR ATCC 49601; 100 mg/kg orally 5 days/week for 4 weeks): significant
reduction in growth of MAC LPR in the spleens and lungs compared to the late controls (M. avium LPR ATCC 49601; 200 mg/kg orally 5 days/week for 4 weeks): significant
reduction in CFU of MAC LPR in spleens and lungs compared to the CLA 200 mg/kg group (M. avium LPR ATCC 49601; 200 mg/kg, difference not statistically significant (P>0.05)): greater
intracellular concentration relative to azithromycin, clarithromycin and telithromycin [9]: more than 2 fold

— patent US9480679B2, “Methods for treating malaria, tuberculosis and MAC diseases” (priority 2009, dated 2016)
